Literature values as cited in USRE41148E1, “Oral pulsed dose drug delivery system” (Shire Laboratories, Inc., priority 1998, dated 2010).

Legend:
[1] = pulsatile capsule, release after nominal 5-hr period, majority of subjects
[2] = wax-surfactant coating level 60%

Row | Compound | drug observed in the blood [1] | lag time of drug release [2] | time required for complete release after the lag time [2]
1 | C[C@H](CS)C(=O)N1CCC[C@H]1C(=O)O [captopril] | no measurable amounts | – | –
2 | Cn1c(=O)c2[nH]cnc2n(C)c1=O [theophylline] | – | two-hour | three hours
